The results in this text go back to US12252524B2, “GIP/GLP1 co-agonist compounds” (Eli Lilly and Company, priority 2018, dated 2025).

Experiment [1] has as its target human GLP-1 receptor (GLP-1R) (Homo sapiens, UniProt P43220). The experiment is described as follows: cAMP pharmacological functional assay in presence of casein, hGLP-1R. The format is cell-based. The conditions noted are these: HEK293 cells expressing hGLP-1R, 0.1% Casein, geometric mean; read-out: hGLP1R cAMP Rel EC50 nM (SEM, n).
Experiment [2] addresses T1, gastric inhibitory peptide receptor (GIPR) (Homo sapiens, UniProt P48546).
T1 sequence (P48546 22-466): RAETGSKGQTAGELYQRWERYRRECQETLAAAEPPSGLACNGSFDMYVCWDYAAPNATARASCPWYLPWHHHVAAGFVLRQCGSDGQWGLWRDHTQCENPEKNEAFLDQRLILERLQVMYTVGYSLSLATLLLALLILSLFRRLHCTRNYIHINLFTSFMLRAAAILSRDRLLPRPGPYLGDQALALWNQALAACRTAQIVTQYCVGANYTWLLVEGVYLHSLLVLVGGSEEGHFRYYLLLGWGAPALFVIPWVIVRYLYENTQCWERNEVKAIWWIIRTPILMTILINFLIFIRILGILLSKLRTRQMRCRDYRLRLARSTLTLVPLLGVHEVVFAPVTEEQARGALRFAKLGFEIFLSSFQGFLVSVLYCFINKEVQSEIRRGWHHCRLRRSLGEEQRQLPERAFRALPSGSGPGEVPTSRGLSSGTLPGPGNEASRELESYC
The experiment is described as follows: cAMP pharmacological functional assay in presence of casein, hGIPR. The experiment is classed as cell-based. The conditions noted are these: HEK293 cells expressing hGIPR, 0.1% Casein, geometric mean; read-out: hGIPR cAMP Rel EC50 nM (SEM, n).

The structures appear in SMILES notation. Numbered stars: 1 amine (or outer) side, 2 acyl side, 3 side chain; on linkers, the order of the positions; unused ones are H or OH. Square brackets hold non-standard residues; d marks the D form. Side chains are listed from the residue outwards. Peptide text beside a SMILES is read from it. * marks the point of attachment. C20 diacid = O=C(O)CCCCCCCCCCCCCCCCCCC(=O)*; αMePhe(2-F) = C[C@](N)(Cc1ccccc1F)C(=O)O; γGlu = O=C(O)[C@H](CCC(=O)[*:2])N[*:1]; αMeF = C[C@](N)(Cc1ccccc1)C(=O)O; αMeL = CC(C)C[C@](C)(N)C(=O)O; αMeP = C[C@@]1(C(=O)O)CCCN1; Dap = NC[C@H](N)C(=O)O; AEEA = NCCOCCOCC(=O)O; Aib = CC(C)(N)C(=O)O

human GLP-1 receptor (GLP-1R), sequence (P43220 24-463): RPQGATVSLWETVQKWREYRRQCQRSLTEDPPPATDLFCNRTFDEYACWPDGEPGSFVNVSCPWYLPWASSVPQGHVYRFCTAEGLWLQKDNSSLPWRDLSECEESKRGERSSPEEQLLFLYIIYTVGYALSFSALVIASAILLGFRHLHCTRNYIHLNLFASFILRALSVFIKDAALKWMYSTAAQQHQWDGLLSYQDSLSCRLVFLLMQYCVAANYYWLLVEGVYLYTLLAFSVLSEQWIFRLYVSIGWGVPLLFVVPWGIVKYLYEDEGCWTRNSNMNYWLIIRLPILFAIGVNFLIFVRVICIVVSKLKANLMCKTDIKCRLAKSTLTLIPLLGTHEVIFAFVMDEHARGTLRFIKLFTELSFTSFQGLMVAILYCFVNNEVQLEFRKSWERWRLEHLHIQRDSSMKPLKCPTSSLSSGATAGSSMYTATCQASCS

The term EC50 denotes the concentration needed to bring the measured effect to its halfway point. On to `CC[C@H](C)[C@H](NC(=O)[C@H](CC(C)C)NC(=O)[C@H](Cc1ccc(O)cc1)NC(=O)[C@H](CCC(=O)O)NC(=O)[C@@H](NC(=O)[C@H](Cc1ccccc1)NC(=O)[C@H](CCC(=O)O)NC(=O)C(C)(C)NC(=O)[C@H](CCC(N)=O)NC(=O)[C@H](C)NC(=O)[C@H](CCCCNC(=O)COCCOCCNC(=O)COCCOCCNC(=O)CC[C@H](NC(=O)CCCCCCCCCCCCCCCCCCC(=O)O)C(=O)O)NC(=O)[C@H](CCC(=O)O)NC(=O)[C@H](CC(=O)O)NC(=O)[C@H](CC(C)C)NC(=O)[C@](C)(CC(C)C)NC(=O)[C@@H](NC(=O)[C@H](CO)NC(=O)[C@](C)(Cc1ccccc1)NC(=O)[C@H](CC(=O)O)NC(=O)[C@H](CO)NC(=O)[C@@H](NC(=O)[C@](C)(Cc1ccccc1F)NC(=O)[C@@H](NC(=O)CNC(=O)[C@H](CCC(=O)O)NC(=O)C(C)(C)NC(=O)[C@@H](N)Cc1ccc(O)cc1)[C@@H](C)O)[C@@H](C)O)[C@@H](C)CC)[C@@H](C)CC)C(=O)N[C@@H](CCC(=O)O)C(=O)NCC(=O)NCC(=O)N1CCC[C@H]1C(=O)N[C@@H](CO)C(=O)N[C@@H](CO)C(=O)NCC(=O)N[C@@H](C)C(=O)N1CCC[C@H]1C(=O)N1CCC[C@H]1C(=O)N1CCC[C@H]1C(=O)N[C@@H](CO)C(N)=O` [Example 159] (H-Y[Aib]EGT[αMePhe(2-F)]TSD[αMeF]SI[αMeL]LDEK([AEEA-AEEA-γGlu-C20 diacid])AQ[Aib]EFIEYLIEGGPSSGAPPPS-NH2), for which the figures for the EC50 in experiment [1] and in experiment [2] were 0.33 nM and 4.6 nM, respectively.

Consider `CC[C@H](C)[C@H](NC(=O)[C@H](CC(C)C)NC(=O)[C@H](Cc1ccc(O)cc1)NC(=O)[C@@H](CCC(=O)O)NC(=O)[C@@H](NC(=O)[C@H](Cc1ccccc1)NC(=O)[C@@H](NC(=O)C(C)(C)NC(=O)[C@H](CCC(N)=O)NC(=O)[C@H](C)NC(=O)[C@H](CCCCNC(=O)COCCOCCNC(=O)COCCOCCNC(=O)CC[C@H](NC(=O)CCCCCCCCCCCCCCCCCCC(=O)O)C(=O)O)NC(=O)[C@H](CN)NC(=O)[C@H](CC(=O)O)NC(=O)[C@H](CC(C)C)NC(=O)[C@](C)(CC(C)C)NC(=O)[C@@H](NC(=O)[C@H](CO)NC(=O)[C@H](Cc1c[nH]cn1)NC(=O)[C@H](CC(=O)O)NC(=O)[C@H](CO)NC(=O)[C@@H](NC(=O)[C@](C)(Cc1ccccc1F)NC(=O)[C@@H](NC(=O)CNC(=O)[C@H](CCC(=O)O)NC(=O)C(C)(C)NC(=O)[C@@H](N)Cc1ccc(O)cc1)[C@@H](C)O)[C@@H](C)O)[C@@H](C)CC)[C@@H](C)O)[C@@H](C)CC)C(=O)N[C@@H](CCC(=O)O)C(=O)NCC(=O)NCC(=O)N1CCC[C@H]1C(=O)N[C@@H](CO)C(=O)N[C@@H](CO)C(=O)NCC(=O)N[C@@H](C)C(=O)N1CCC[C@H]1C(=O)N1CCC[C@H]1C(=O)N1CCC[C@H]1C(=O)N[C@@H](CO)C(N)=O` [Example 173] (H-Y[Aib]EGT[αMePhe(2-F)]TSDHSI[αMeL]LD[Dap]K([AEEA-AEEA-γGlu-C20 diacid])AQ[Aib]TFI[dE]YLIEGGPSSGAPPPS-NH2), for which the figures for the EC50 in experiment [1] and in experiment [2] were 1.23 nM and 0.586 nM, respectively.

As to `CC[C@H](C)[C@H](NC(=O)[C@H](CC(C)C)NC(=O)[C@H](Cc1c[nH]cn1)NC(=O)[C@@H](CCC(=O)O)NC(=O)[C@@H](NC(=O)[C@H](Cc1ccccc1)NC(=O)[C@@H](NC(=O)C(C)(C)NC(=O)[C@H](CCC(N)=O)NC(=O)[C@H](C)NC(=O)[C@H](CCCCNC(=O)COCCOCCNC(=O)COCCOCCNC(=O)CC[C@H](NC(=O)CC[C@H](NC(=O)CCCCCCCCCCCCCCCCCCC(=O)O)C(=O)O)C(=O)O)NC(=O)[C@H](CCC(=O)O)NC(=O)[C@H](CC(=O)O)NC(=O)[C@H](CC(C)C)NC(=O)[C@](C)(CC(C)C)NC(=O)[C@@H](NC(=O)[C@H](CO)NC(=O)[C@H](Cc1c[nH]cn1)NC(=O)[C@H](CC(=O)O)NC(=O)[C@H](CO)NC(=O)[C@@H](NC(=O)[C@](C)(Cc1ccccc1F)NC(=O)[C@@H](NC(=O)CNC(=O)[C@H](CCC(=O)O)NC(=O)C(C)(C)NC(=O)[C@@H](N)Cc1ccc(O)cc1)[C@@H](C)O)[C@@H](C)O)[C@@H](C)CC)[C@@H](C)O)[C@@H](C)CC)C(=O)N[C@@H](CCC(=O)O)C(=O)NCC(=O)NCC(=O)N1CCC[C@H]1C(=O)N[C@@H](CO)C(=O)N[C@@H](CO)C(=O)NCC(N)=O` [Example 162] (H-Y[Aib]EGT[αMePhe(2-F)]TSDHSI[αMeL]LDEK([AEEA-AEEA-γGlu-γGlu-C20 diacid])AQ[Aib]TFI[dE]HLIEGGPSSG-NH2; N-terminus assumed), the values for the EC50 in experiment [1] and in experiment [2] were 36 nM and 4.56 nM, respectively.

As to `CC[C@H](C)[C@H](NC(=O)[C@H](CC(C)C)NC(=O)[C@H](Cc1ccc(O)cc1)NC(=O)[C@@H](CCC(=O)O)NC(=O)[C@@H](NC(=O)[C@H](Cc1ccccc1)NC(=O)[C@H](CCC(=O)O)NC(=O)C(C)(C)NC(=O)[C@H](CCC(N)=O)NC(=O)[C@H](C)NC(=O)[C@H](CCC(N)=O)NC(=O)[C@H](CCC(=O)O)NC(=O)[C@H](CC(=O)O)NC(=O)[C@H](CC(C)C)NC(=O)[C@](C)(CC(C)C)NC(=O)[C@@H](NC(=O)[C@H](CO)NC(=O)[C@H](Cc1ccc(O)cc1)NC(=O)[C@H](CC(=O)O)NC(=O)[C@H](CO)NC(=O)[C@@H](NC(=O)[C@](C)(Cc1ccccc1F)NC(=O)[C@@H](NC(=O)CNC(=O)[C@H](CCC(=O)O)NC(=O)C(C)(C)NC(=O)[C@@H](N)Cc1ccc(O)cc1)[C@@H](C)O)[C@@H](C)O)[C@@H](C)CC)[C@@H](C)CC)C(=O)N[C@@H](CCC(=O)O)C(=O)NCC(=O)NCC(=O)N1CCC[C@H]1C(=O)N[C@@H](CO)C(=O)N[C@@H](CO)C(=O)NCC(=O)N[C@@H](C)C(=O)N1CCC[C@H]1C(=O)N1CCC[C@H]1C(=O)N1CCC[C@H]1C(=O)N[C@@H](CO)C(N)=O` [Example 277] (H-Y[Aib]EGT[αMePhe(2-F)]TSDYSI[αMeL]LDEQAQ[Aib]EFI[dE]YLIEGGPSSGAPPPS-NH2; N-terminus assumed), the EC50 in experiment [1] came to 0.133 nM; in experiment [2], 0.0554 nM.

Take `CC[C@H](C)[C@H](NC(=O)[C@H](CC(C)C)NC(=O)[C@H](Cc1ccc(O)cc1)NC(=O)[C@H](CCC(=O)O)NC(=O)[C@@H](NC(=O)[C@H](Cc1ccccc1)NC(=O)[C@H](C)NC(=O)[C@H](Cc1c[nH]cn1)NC(=O)[C@H](CCC(N)=O)NC(=O)[C@H](C)NC(=O)[C@H](CCCCNC(=O)COCCOCCNC(=O)COCCOCCNC(=O)CC[C@H](NC(=O)CCCCCCCCCCCCCCCCCCC(=O)O)C(=O)O)NC(=O)[C@H](CCCNC(=N)N)NC(=O)[C@H](CC(=O)O)NC(=O)[C@H](CC(C)C)NC(=O)[C@H](CC(C)C)NC(=O)[C@@H](NC(=O)[C@H](CO)NC(=O)[C@H](Cc1ccc(O)cc1)NC(=O)[C@H](CC(=O)O)NC(=O)[C@H](CO)NC(=O)[C@@H](NC(=O)[C@H](Cc1ccccc1)NC(=O)[C@@H](NC(=O)CNC(=O)[C@H](CCC(=O)O)NC(=O)[C@]1(C)CCCN1C(=O)[C@@H](N)Cc1ccc(O)cc1)[C@@H](C)O)[C@@H](C)O)[C@@H](C)CC)[C@@H](C)CC)C(=O)N[C@@H](CCC(=O)O)C(=O)NCC(=O)NCC(=O)N1CCC[C@H]1C(=O)N[C@@H](CO)C(=O)N[C@@H](CO)C(=O)NCC(=O)N[C@@H](C)C(=O)N1CCC[C@H]1C(=O)N1CCC[C@H]1C(=O)N1CCC[C@H]1C(=O)N[C@@H](CO)C(N)=O` [Example 196] (H-Y[αMeP]EGTFTSDYSILLDRK([AEEA-AEEA-γGlu-C20 diacid])AQHAFIEYLIEGGPSSGAPPPS-NH2): the figures for the EC50 in experiment [1] and in experiment [2] were 0.175 nM and 0.277 nM, respectively.

Take `CC[C@H](C)[C@H](NC(=O)[C@H](CC(C)C)NC(=O)[C@H](Cc1ccc(O)cc1)NC(=O)[C@H](CCC(=O)O)NC(=O)[C@@H](NC(=O)[C@H](Cc1ccccc1)NC(=O)[C@H](C)NC(=O)C(C)(C)NC(=O)[C@H](CCC(N)=O)NC(=O)[C@H](C)NC(=O)[C@H](CCCCNC(=O)COCCOCCNC(=O)COCCOCCNC(=O)CC[C@H](NC(=O)CCCCCCCCCCCCCCCCCCC(=O)O)C(=O)O)NC(=O)[C@H](CCCCN)NC(=O)[C@H](CC(=O)O)NC(=O)[C@H](CC(C)C)NC(=O)[C@H](CC(C)C)NC(=O)[C@@H](NC(=O)[C@H](CO)NC(=O)[C@H](C)NC(=O)[C@H](CC(=O)O)NC(=O)[C@H](CO)NC(=O)[C@@H](NC(=O)[C@H](Cc1ccccc1)NC(=O)[C@@H](NC(=O)CNC(=O)[C@H](CCC(=O)O)NC(=O)C(C)(C)NC(=O)[C@@H](N)Cc1ccc(O)cc1)[C@@H](C)O)[C@@H](C)O)[C@@H](C)CC)[C@@H](C)CC)C(=O)N[C@@H](CCC(=O)O)C(=O)N[C@@H](C)C(=O)NCC(=O)N1CCC[C@H]1C(=O)N[C@@H](CO)C(=O)N[C@@H](CO)C(=O)NCC(=O)N[C@@H](C)C(=O)N1CCC[C@H]1C(=O)N1CCC[C@H]1C(=O)N1CCC[C@H]1C(=O)N[C@@H](CO)C(N)=O` [Example 136] (H-Y[Aib]EGTFTSDASILLDKK([AEEA-AEEA-γGlu-C20 diacid])AQ[Aib]AFIEYLIEAGPSSGAPPPS-NH2): the EC50 in experiment [1] worked out at 0.06 nM; in experiment [2], 3.39 nM.
